# Experiments:
# C. auris [1] = experiment: Differentiation of C. auris from other Candida species with other QACs in growth media; format: cell-based; details: QAC added to growth medium
# Candida auris = experiment: BAC media panel growth key (Table A, FIG. 19); format: cell-based; details: BAC low 1.5 mg/l or high 10 mg/l; pH 3.3 or 7.5; peptone, potato dextrose or YNB with amino acids; 23° C. or 37° C.
# Excerpt: (§1) As an example, a group of 36 yeast strains with Candida-like morphology representing 29 different species was used to define single species or subgroups of species depending on their QAC sensitivity at different temperatures, pH values and in the presence of different supplements (e.g. peptone, potato dextrose, and YNB with amino acids).
# (§2) Preliminary tests were designed with several representative yeast strains with a range of benzalkonium chloride (“BAC”) concentrations, a mix of supplements, neutral pH, and intermediate temperature (30° C.). The observed growth characteristics made it likely that two BAC concentrations (“low”=1.5 mg/l and “high”=10 mg/l) could be used in conjunction with the three different growth supplements (used separately). Low and high pH and temperature values were defined to elicit species-specific growth responses: two different pH conditions (pH 3.3 and pH 7.5, adjusted with concentrations of HCl or 100 mg/ml NaOH) and incubation temperatures (23° C. and 37° C.). Commonly used concentrations for peptone (20 g/l), potato dextrose (24 g/l), and yeast nitrogen base with amino acids (6.7 g/l) were applied. […] For example: “pH7.5/low BAC/Pep-23° C.” refers to a plate with pH 7.5, […] BAC (low BAC) containing peptone as a growth supplement and incubated at 23° C.
# (§3) All 36 strains were streaked and precultured for 48 h on Sabauroud-dextrose medium at 30° C. before cell samples were suspended in water (as described before). 10-15 μl drops of these suspensions were applied to the different media and plates were incubated in parallel at 37° C. and 23° C. These drops were classified as growing (+) or non-growing (−) after 3 days or 5 days of incubation, respectively.
# Candida guilliermondii = experiment: BAC media panel growth key (Table A, FIG. 19); format: cell-based; details: BAC low 1.5 mg/l or high 10 mg/l; pH 3.3 or 7.5; peptone, potato dextrose or YNB with amino acids; 23° C. or 37° C.
# Excerpt: as §1, §2, §3
# Candida valida = experiment: BAC media panel growth key (Table A, FIG. 19); format: cell-based; details: BAC low 1.5 mg/l or high 10 mg/l; pH 3.3 or 7.5; peptone, potato dextrose or YNB with amino acids; 23° C. or 37° C.
# Excerpt: as §1, §2, §3
# Candida rugosa = experiment: BAC media panel growth key (Table A, FIG. 19); format: cell-based; details: BAC low 1.5 mg/l or high 10 mg/l; pH 3.3 or 7.5; peptone, potato dextrose or YNB with amino acids; 23° C. or 37° C.
# Excerpt: as §1, §2, §3
# C. auris [2] = experiment: Plate assay on Sabouraud dextrose medium with tBHP (FIGS. 13A-13B); format: cell-based, Candida auris; details: 30° C.
# Experimental: FIGS. 13A-13B illustrate C. auris's relative sensitivity to tBHP. FIG. 13A depicts a plate with a tBHP-containing culture medium that includes seven different yeasts (Candida albicans, Candida glabrata, Candida krusei, Candida auris, Candida haemulonii, Candida famata, and Saccharomyces cerevisiae) at five different calculated cell counts (62, 625, 6,250, […], with the uncertainty inherent in the calculation). The yeast-containing plate was incubated at 30° C. The plating scheme is illustrated in FIG. 1. The culture medium comprised a Sabouraud dextrose medium with tBHP (added after autoclaving the other media ingredients from a 70% solution in water). Whereas a resuspension of cells picked from a colony will always enhance the sensitivity of this (and related) assays, it is possible to streak cells without any dilution directly from a colony if the plate is evaluated early (after approximately 24 hours, some regrowth will occur later), as depicted in FIG. 13B. […]
compound,measurement,setting,value
benzalkonium chloride,use to differentiate C. auris from other Candida species,C. auris [1],successfully used
same,growth pattern over 24 BAC / supplement / pH / temperature conditions,Candida auris,resistance to BAC under virtually all conditions
same,growth pattern over 24 BAC / supplement / pH / temperature conditions,Candida guilliermondii,growth is observed under all conditions at 23 °C but not 37 °C
same,growth pattern over 24 BAC / supplement / pH / temperature conditions,Candida valida,BAC sensitivity under all conditions
same,growth pattern over 24 BAC / supplement / pH / temperature conditions,Candida rugosa,growth at the high concentration appears to be restricted to the low pH
CCCCCCCCCCCCCC[N+](C)(C)C.[Br-] [tetradecyltrimethylammonium bromide],use to differentiate C. auris from other Candida species,C. auris [1],successfully used
CC(C)(C)OO [tert-butyl-hydroperoxide],sensitivity to tBHP relative to other yeasts,C. auris [2],relatively high sensitivity
CC(C)(C)CC(C)(C)c1ccc(OCCOCC[N+](C)(C)Cc2ccccc2)cc1 [benzethonium chloride],use to differentiate C. auris from other Candida species,C. auris [1],successfully used
